Like-named read-outs stand apart in the source and are kept apart here.
Key:
[1] = Photostability: iodide formed after UV light irradiation; type: physicochemical; conditions: 18 h, 50 mM
Method: Aqueous solutions comprising iodinated contrast agents were prepared and evaluated in a photolysis chamber as described in the ICH guidance document, Q1B Photostability Testing of New Drug Substances and Products, available from the US Food and Drug Administration, incorporated herein by reference. The solutions were placed in 1 cm×1 cm (3 mL) quartz cuvettes having 2 clear sides and 2 sides etched. Lids were placed on the cuvettes and sealed with a wrap of Parafilm® around the joint. The cuvettes were placed in a photolysis chamber, upright on a flat surface beneath and centered between two horizontal 24 inch fluorescent lamps, (GE, black light F20T12, 20 watt for ultraviolet, or Philips F20T12/CW, 20 watt for visible) placed 6 cm apart. The cuvettes were positioned such that their two clear sides were facing the two lamps.
Cuvettes were spaced ˜2 cm from each other, and no closer than 15 cm from the ends of the lamps. This positioning allowed reproducible light exposure to all cuvettes.
The lamps were switched on and the solutions irradiated for 18 to 24 hours for the ultraviolet (UV) lamps or 72 to 90 hours for the visible (VIS) light lamps. At the end of the selected irradiation time, the cuvettes were removed from the photolysis chamber and mixed by inversion 2-times. The caps were then removed and 40 microliter aliquots taken and diluted with 1 mL of an aqueous solution containing ˜0.9 mg/mL sodium thiosulfate. The thiosulfate solution converted any I2, IO3^−, and I3^− present in the solution tor such that total iodine species could be determined in one assay.
The diluted solutions were assayed by high pressure liquid chromatography (HPLC) using a 4.6×250 mm, C-18, 5 micron particle size, reversed phase column with detection at 280 nm for the contrast agent and 230 nm for the thiosulfate and the iodide ion (r). A mobile phase of 30:70 methanol:aqueous buffer (50 mM KH2PO4+7 mL/L 40% tetrabutyl ammonium hydroxide) at 0.75 mL/min was used for elution. Injection volume was 20 microliters. External standards were prepared containing each contrast agent, potassium iodide, and sodium thiosulfate solution and analyzed along with the irradiated samples. The results were reported as weight percentage iodide formed (mg iodide/mg contrast agent times 100).
The absorbance readings at 400 nm due to light exposure were plotted against time of exposure and the resulting correlation used to determine the UV and VIS light exposure. A change in absorbance reading of 0.45 was assumed equivalent to 200 watt hours/square meter for the UV light and a change of 0.51 was assumed equivalent to 1.2 million lux hours for the VIS light. The UV lamps provided 6.62 watts/square meter and the VIS lamps provided 7180 lux.
Aqueous solutions were prepared containing 50 mM contrast agent by diluting commercially available solutions with water. Tromethamine HCl buffer (TRIS), was added to solutions as necessary to increase the TRIS content to that of the commercial product before dilution.
SCD was added to the solutions at various mole ratios and the pH of the solutions adjusted to 7.4 with 0.1N hydrochloric acid or 0.1N sodium hydroxide. The solutions were irradiated with UV light for 18 hours (119 watt hours/m^2) then processed, analyzed and reported as in Example 2. The SCDs evaluated were sulfobutyl ether beta-cyclodextrin with an average degree of substitution of 7 (SBE-704CD), and two 2-hydroxypropyl beta-cyclodextrin derivatives having 6.3 (HP-6.3n/CD) and 4.3 (HP-4.3-βCD) average degrees of substitution.
Aqueous solutions were prepared containing 50 mM contrast agent by diluting commercially available solutions with distilled water. Tromethamine HCl buffer (TRIS), was added to some solutions to increase the buffer content.
The solutions were divided and SBE-7-CD added to one aliquot at a contrast agent:SCD mole ratio of 1:1. The pH of the solutions was adjusted to 5, 6, 7, 7.4 or 8 with 0.1N hydrochloric acid or sodium hydroxide. […]

[2] = type: physicochemical; conditions: for Iodide formed: 50 mM agent, 10 mM TRIS, pH 7.4, autoclaved then UV 18 h; for percent change in iodide degradants, UV: 24 h; for percent change in iodide degradants, UV / percent change in iodide degradants, VIS: pH 7.1; for percent change in iodide degradants, VIS: 72 h

% Change in iodide degradants formed in the presence of the SCD ([1]; pH 5): −43.6%
% Change in iodide degradants formed in the presence of the SCD ([1]; pH 7.4): −58.5%
% Change in iodide degradants formed in the presence of the SCD ([1]; pH 8): −47%
Iodide formed ([2]; agent:SBE7-β-CD 1:0.1): 0.545 wt %
Iodide formed ([2]; no SCD (1:0)): 0.665 wt %
percent change in iodide degradants formed in the presence of the SCD ([2]; 18 h, 50 mM, pH 7.4): (−18%)
percent change in iodide degradants, UV ([2]; 160 mg I/mL): (−24.0%)
percent change in iodide degradants, UV ([2]; 240 mg I/mL): (−19.2%)
percent change in iodide degradants, UV ([2]; 300 mg I/mL): (−17.2%)
percent change in iodide degradants, UV ([2]; 320 mg I/mL): (−36.7%)
percent change in iodide degradants, UV ([2]; 350 mg I/mL): (−26.8%)
percent change in iodide degradants, VIS ([2]; 160 mg I/mL): (−9.9%)
percent change in iodide degradants, VIS ([2]; 240 mg I/mL): (−11.9%)
percent change in iodide degradants, VIS ([2]; 300 mg I/mL): (−17.4%)
percent change in iodide degradants, VIS ([2]; 320 mg I/mL): (−14.2%)
percent change in iodide degradants, VIS ([2]; 350 mg I/mL): (−11.7%)
Iodide Formed, UV ([2]; Ioversol 160 mg I/mL, pH 7.1, agent:SBE7CD 1:0.05, autoclaved then UV 24 h): 0.171 wt %
Iodide Formed, VIS ([2]; Ioversol 160 mg I/mL, pH 7.1, agent:SBE7CD 1:0.05, autoclaved then VIS 72 h): 0.0646 wt %
Iodide Formed, UV ([2]; Ioversol 160 mg I/mL, pH 7.1, no SCD (1:0), autoclaved then UV 24 h): 0.225 wt %
Iodide Formed, VIS ([2]; Ioversol 160 mg I/mL, pH 7.1, no SCD (1:0), autoclaved then VIS 72 h): 0.0717 wt %
Iodide Formed, UV ([2]; Ioversol 240 mg I/mL, pH 7.1, agent:SBE7CD 1:0.05, autoclaved then UV 24 h): 0.126 wt %
Iodide Formed, VIS ([2]; Ioversol 240 mg I/mL, pH 7.1, agent:SBE7CD 1:0.05, autoclaved then VIS 72 h): 0.0400 wt %
Iodide Formed, UV ([2]; Ioversol 240 mg I/mL, pH 7.1, no SCD (1:0), autoclaved then UV 24 h): 0.156 wt %
Iodide Formed, VIS ([2]; Ioversol 240 mg I/mL, pH 7.1, no SCD (1:0), autoclaved then VIS 72 h): 0.0454 wt %
Iodide Formed, UV ([2]; Ioversol 300 mg I/mL, pH 7.1, agent:SBE7CD 1:0.05, autoclaved then UV 24 h): 0.111 wt %
Iodide Formed, VIS ([2]; Ioversol 300 mg I/mL, pH 7.1, agent:SBE7CD 1:0.05, autoclaved then VIS 72 h): 0.0298 wt %
Iodide Formed, UV ([2]; Ioversol 300 mg I/mL, pH 7.1, no SCD (1:0), autoclaved then UV 24 h): 0.134 wt %
Iodide Formed, VIS ([2]; Ioversol 300 mg I/mL, pH 7.1, no SCD (1:0), autoclaved then VIS 72 h): 0.0361 wt %
Iodide Formed, UV ([2]; Ioversol 320 mg I/mL, pH 7.1, agent:SBE7CD 1:0.05, autoclaved then UV 24 h): 0.0778 wt %
Iodide Formed, VIS ([2]; Ioversol 320 mg I/mL, pH 7.1, agent:SBE7CD 1:0.05, autoclaved then VIS 72 h): 0.0277 wt %
Iodide Formed, UV ([2]; Ioversol 320 mg I/mL, pH 7.1, no SCD (1:0), autoclaved then UV 24 h): 0.123 wt %
Iodide Formed, VIS ([2]; Ioversol 320 mg I/mL, pH 7.1, no SCD (1:0), autoclaved then VIS 72 h): 0.0323 wt %
Iodide Formed, UV ([2]; Ioversol 350 mg I/mL, pH 7.1, agent:SBE7CD 1:0.05, autoclaved then UV 24 h): 0.0864 wt %
Iodide Formed, VIS ([2]; Ioversol 350 mg I/mL, pH 7.1, agent:SBE7CD 1:0.05, autoclaved then VIS 72 h): 0.0250 wt %
Iodide Formed, UV ([2]; Ioversol 350 mg I/mL, pH 7.1, no SCD (1:0), autoclaved then UV 24 h): 0.118 wt %
Iodide Formed, VIS ([2]; Ioversol 350 mg I/mL, pH 7.1, no SCD (1:0), autoclaved then VIS 72 h): 0.0283 wt %
Compound: O=C(NCC(O)CO)c1c(I)c(C(=O)NCC(O)CO)c(I)c(N(CCO)C(=O)CO)c1I (stereo not drawn) [Ioversol, ioversol]
